# Test results reported in ChEMBL document CHEMBL4311976, “Design, synthesis and biological evaluation of novel 7H-pyrrolo[2,3-d]pyrimidine derivatives as potential FAK inhibitors and anticancer agents” (Eur J Med Chem, 2019).
# Columns and labels:
# [1] = target: Proto-oncogene tyrosine-protein kinase receptor Ret (Homo sapiens) (UniProt P07949); experiment: Inhibition of recombinant GST-tagged human RET (658 to 1114 residues) expressed in baculovirus expression system at 0.5 uM using tyr 02 as substrate in presence of ATP at Km concentration after 1 hr by Z'-LYTE assay relative to control
# [2] = species on record: Homo sapiens; experiment: Inhibition of recombinant full length His-tagged human PKA catalytic domain expressed in Escherichia coli at 0.5 uM using Ser/Thr 01 as substrate in presence of ATP at Km concentration after 1 hr by Z'-LYTE assay relative to control
# [3] = target: Serine/threonine-protein kinase PLK1 (Homo sapiens) (UniProt P53350); experiment: Inhibition of recombinant full length His-tagged human PLK1 expressed in baculovirus expression system at 0.5 uM using Ser/Thr 16 as substrate in presence of ATP at Km concentration after 1 hr by Z'-LYTE assay relative to control
# Chain of Serine/threonine-protein kinase PLK1 (Homo sapiens) (P53350 whole entry): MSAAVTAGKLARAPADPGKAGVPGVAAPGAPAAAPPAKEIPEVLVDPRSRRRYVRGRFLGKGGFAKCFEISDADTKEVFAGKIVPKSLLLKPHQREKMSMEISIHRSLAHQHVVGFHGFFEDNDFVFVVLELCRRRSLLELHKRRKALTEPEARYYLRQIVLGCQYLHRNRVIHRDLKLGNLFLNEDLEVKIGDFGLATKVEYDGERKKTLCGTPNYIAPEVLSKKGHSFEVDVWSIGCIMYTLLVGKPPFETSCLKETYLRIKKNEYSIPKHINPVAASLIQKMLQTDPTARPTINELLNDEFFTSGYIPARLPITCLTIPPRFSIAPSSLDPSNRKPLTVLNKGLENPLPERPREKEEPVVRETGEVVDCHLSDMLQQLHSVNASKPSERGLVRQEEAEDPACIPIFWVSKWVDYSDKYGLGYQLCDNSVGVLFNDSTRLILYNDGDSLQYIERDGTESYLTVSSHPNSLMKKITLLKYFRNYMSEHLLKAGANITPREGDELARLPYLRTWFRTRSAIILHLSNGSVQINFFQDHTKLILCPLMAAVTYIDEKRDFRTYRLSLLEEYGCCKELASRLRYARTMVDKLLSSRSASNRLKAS
# [4] = target: Serine/threonine-protein kinase pim-2 (Homo sapiens) (UniProt Q9P1W9); experiment: Inhibition of recombinant full length GST-tagged human PIM2 expressed in baculovirus expression system at 0.5 uM using Ser/Thr 07 as substrate in presence of ATP at Km concentration after 1 hr by Z'-LYTE assay relative to control
# Chain of Serine/threonine-protein kinase pim-2 (Homo sapiens) (Q9P1W9 whole entry, looked up): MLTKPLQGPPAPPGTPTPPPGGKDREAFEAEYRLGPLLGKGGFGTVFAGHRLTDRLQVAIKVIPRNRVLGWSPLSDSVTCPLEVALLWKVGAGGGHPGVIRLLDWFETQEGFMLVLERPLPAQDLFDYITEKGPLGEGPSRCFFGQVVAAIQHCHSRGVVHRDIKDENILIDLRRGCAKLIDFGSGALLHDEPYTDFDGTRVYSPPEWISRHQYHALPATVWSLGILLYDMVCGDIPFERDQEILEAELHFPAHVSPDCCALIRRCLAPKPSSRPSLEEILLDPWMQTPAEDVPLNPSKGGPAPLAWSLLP
# [5] = target: Tyrosine-protein kinase Lck (Homo sapiens) (UniProt P06239); experiment: Inhibition of recombinant full length His-tagged human LCK expressed in baculovirus expression system at 0.5 uM using tyr 02 as substrate in presence of ATP at Km concentration after 1 hr by Z'-LYTE assay relative to control
# Chain of Tyrosine-protein kinase Lck (Homo sapiens) (P06239 2-509 limits assumed): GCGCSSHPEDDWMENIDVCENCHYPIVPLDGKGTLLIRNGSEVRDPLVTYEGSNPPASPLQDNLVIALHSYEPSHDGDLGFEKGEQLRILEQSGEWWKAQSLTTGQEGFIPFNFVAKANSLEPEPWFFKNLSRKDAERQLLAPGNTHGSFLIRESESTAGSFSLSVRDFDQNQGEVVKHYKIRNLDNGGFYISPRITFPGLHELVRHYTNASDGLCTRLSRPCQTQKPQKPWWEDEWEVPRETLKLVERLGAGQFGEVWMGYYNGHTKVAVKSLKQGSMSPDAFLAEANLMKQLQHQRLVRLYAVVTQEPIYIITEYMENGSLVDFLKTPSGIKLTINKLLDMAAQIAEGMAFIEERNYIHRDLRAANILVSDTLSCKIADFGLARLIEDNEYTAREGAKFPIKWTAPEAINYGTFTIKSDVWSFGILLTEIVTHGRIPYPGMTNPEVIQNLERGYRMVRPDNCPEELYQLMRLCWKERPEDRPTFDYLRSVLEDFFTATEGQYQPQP
# [6] = target: Mast/stem cell growth factor receptor Kit (Homo sapiens) (UniProt P10721); experiment: Inhibition of recombinant His-tagged human KIT (544 to 976 residues) expressed in baculovirus expression system at 0.5 uM using tyr 06 as substrate in presence of ATP at Km concentration after 1 hr by Z'-LYTE assay relative to control
# [7] = target: Serine/threonine-protein kinase mTOR (Homo sapiens) (UniProt P42345); experiment: Inhibition of recombinant GST-tagged human mTOR catalytic domain (1360 to 2549 residues) expressed in baculovirus expression system at 0.5 uM using Ser/Thr 11 as substrate in presence of ATP at Km concentration after 1 hr by Z'-LYTE assay relative to control
# [8] = target: Receptor-type tyrosine-protein kinase FLT3 (Homo sapiens) (UniProt P36888); experiment: Inhibition of recombinant His-tagged human FLT3 (564 to 958 residues) expressed in baculovirus expression system at 0.5 uM using tyr 02 as substrate in presence of ATP at Km concentration after 1 hr by Z'-LYTE assay relative to control
# Chain of Receptor-type tyrosine-protein kinase FLT3 (Homo sapiens) (P36888 whole entry, the tested form may be a part): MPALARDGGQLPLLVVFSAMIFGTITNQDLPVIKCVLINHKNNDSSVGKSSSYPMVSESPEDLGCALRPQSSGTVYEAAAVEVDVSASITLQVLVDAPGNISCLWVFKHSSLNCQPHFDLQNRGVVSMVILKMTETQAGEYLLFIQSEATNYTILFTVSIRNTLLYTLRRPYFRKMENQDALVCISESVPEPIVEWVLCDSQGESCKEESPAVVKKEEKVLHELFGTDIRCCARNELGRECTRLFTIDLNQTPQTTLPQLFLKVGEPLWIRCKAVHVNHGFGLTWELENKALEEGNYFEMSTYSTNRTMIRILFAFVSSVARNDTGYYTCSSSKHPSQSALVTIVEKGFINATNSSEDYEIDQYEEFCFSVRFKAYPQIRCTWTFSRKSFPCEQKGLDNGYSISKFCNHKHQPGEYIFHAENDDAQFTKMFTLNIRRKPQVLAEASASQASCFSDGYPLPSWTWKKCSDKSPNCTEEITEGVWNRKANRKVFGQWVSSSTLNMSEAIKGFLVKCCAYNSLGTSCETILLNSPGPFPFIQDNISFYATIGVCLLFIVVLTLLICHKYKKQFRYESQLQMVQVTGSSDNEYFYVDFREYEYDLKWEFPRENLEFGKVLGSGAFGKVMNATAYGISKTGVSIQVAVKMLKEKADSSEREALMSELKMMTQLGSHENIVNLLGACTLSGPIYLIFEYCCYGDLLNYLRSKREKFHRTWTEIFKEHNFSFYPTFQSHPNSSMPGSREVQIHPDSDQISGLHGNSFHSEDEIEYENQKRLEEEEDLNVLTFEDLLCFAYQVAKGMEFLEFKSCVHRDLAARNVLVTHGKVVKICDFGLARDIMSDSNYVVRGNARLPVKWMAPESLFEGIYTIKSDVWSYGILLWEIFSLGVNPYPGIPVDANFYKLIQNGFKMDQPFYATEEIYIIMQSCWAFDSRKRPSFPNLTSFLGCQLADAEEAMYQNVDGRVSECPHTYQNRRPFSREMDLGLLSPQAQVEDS
# [9] = target: ALK tyrosine kinase receptor (Homo sapiens) (UniProt Q9UM73); experiment: Inhibition of recombinant human GST-tagged ALK (1058 to 1620 residues) expressed in baculovirus at 0.5 uM using tyr 01 as substrate as substrate in presence of ATP at Km concentration after 1 hr by Z'-LYTE assay relative to control
# [10] = target: Tyrosine-protein kinase ABL1 (Homo sapiens) (UniProt P00519); experiment: Inhibition of full-length His-tagged human ABL1 expressed in baculovirus expression system at 0.5 uM using tyr 02 as substrate in presence of ATP at Km concentration after 1 hr by Z'-LYTE assay relative to control
# Chain of Tyrosine-protein kinase ABL1 (Homo sapiens) (P00519 whole entry): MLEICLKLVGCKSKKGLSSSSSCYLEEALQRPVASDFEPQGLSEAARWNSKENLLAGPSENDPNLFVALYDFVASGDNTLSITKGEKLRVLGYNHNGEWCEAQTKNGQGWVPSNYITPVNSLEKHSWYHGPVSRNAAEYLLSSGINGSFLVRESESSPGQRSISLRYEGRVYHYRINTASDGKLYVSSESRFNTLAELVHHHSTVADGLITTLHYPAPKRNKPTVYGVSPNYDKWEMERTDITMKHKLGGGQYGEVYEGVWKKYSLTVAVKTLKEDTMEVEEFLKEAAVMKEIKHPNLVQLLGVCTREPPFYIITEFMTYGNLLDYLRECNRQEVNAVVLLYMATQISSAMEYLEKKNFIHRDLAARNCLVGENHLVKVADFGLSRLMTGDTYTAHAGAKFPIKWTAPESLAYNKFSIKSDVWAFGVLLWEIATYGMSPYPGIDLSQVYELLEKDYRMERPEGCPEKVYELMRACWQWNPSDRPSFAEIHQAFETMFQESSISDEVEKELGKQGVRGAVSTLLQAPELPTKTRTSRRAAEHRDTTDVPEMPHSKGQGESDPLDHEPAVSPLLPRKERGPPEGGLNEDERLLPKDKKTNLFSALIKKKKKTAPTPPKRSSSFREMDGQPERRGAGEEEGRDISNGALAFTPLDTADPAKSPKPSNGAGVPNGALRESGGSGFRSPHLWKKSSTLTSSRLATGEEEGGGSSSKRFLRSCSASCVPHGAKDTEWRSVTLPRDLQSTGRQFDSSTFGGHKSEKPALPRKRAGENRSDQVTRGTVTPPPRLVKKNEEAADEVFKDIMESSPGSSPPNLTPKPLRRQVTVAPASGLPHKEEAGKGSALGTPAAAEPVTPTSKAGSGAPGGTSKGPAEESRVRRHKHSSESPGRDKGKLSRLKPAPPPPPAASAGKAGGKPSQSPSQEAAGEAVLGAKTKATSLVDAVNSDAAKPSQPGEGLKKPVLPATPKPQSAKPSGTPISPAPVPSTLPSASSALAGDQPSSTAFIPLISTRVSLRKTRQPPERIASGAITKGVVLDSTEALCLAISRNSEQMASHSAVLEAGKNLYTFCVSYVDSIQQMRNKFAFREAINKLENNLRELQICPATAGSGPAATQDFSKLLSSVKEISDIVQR
# [11] = target: CYP2C19 (Homo sapiens, UniProt P33261); experiment: Inhibition of CYP2C19 in human pooled liver microsomes at 10 uM using S-mephenytoin as substrate preincubated for 10 mins followed by NADPH addition and measured after 15 mins by LC/MS/MS analysis relative to control; assay type: ADME; settings: probe S-mephenytoin
# Chain of CYP2C19 (P33261 whole entry): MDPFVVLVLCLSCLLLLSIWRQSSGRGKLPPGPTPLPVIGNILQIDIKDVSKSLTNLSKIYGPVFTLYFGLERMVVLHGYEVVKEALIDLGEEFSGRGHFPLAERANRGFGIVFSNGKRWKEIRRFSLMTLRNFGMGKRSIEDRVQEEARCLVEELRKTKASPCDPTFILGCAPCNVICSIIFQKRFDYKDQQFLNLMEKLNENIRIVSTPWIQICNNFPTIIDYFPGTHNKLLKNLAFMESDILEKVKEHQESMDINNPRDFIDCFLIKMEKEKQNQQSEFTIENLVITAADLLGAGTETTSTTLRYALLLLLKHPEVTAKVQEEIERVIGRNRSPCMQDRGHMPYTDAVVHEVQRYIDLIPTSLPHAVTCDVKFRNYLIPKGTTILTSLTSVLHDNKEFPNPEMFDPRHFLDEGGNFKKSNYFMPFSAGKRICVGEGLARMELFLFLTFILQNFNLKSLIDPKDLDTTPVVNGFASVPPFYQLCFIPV
# [12] = target: CYP2C9 (Homo sapiens, UniProt P11712); experiment: Inhibition of CYP2C9 in human pooled liver microsomes at 10 uM using diclofenac as substrate preincubated for 10 mins followed by NADPH addition and measured after 15 mins by LC/MS/MS analysis relative to control; assay type: ADME; settings: probe diclofenac
# Chain of CYP2C9 (P11712 whole entry): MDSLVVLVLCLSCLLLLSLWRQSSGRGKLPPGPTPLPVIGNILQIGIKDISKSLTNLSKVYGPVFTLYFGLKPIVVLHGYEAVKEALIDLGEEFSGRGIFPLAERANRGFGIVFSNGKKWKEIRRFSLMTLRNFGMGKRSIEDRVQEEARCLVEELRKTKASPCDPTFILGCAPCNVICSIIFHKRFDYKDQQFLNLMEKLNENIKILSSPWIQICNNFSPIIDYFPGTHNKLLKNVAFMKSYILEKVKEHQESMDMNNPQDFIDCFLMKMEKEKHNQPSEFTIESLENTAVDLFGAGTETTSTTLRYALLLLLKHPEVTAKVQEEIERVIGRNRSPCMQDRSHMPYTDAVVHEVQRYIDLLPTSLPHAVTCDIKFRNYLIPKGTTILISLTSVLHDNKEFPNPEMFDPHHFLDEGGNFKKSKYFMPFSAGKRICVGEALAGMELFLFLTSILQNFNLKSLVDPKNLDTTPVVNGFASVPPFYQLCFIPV
# [13] = Intrinsic clearance in human liver at 1 uM measured up to 1 hr in presence of NADPH by LC-MS/MS analysis; assay type: ADME, tissue-based
# [14] = Intrinsic clearance in rat liver microsomes at 1 uM measured up to 1 hr in presence of NADPH by LC-MS/MS analysis; assay type: ADME, Microsome; settings: read-out: CLH
# [15] = Intrinsic clearance in human liver microsomes at 1 uM measured up to 1 hr in presence of NADPH by LC-MS/MS analysis; assay type: ADME, Microsome; settings: read-out: CLH
# [16] = Metabolic stability in rat liver microsomes assessed as compound remaining at 1 uM measured up to 1 hr in absence of NADPH by LC-MS/MS analysis; assay type: ADME, Microsome; settings: read-out: Stability
# [17] = Metabolic stability in human liver microsomes assessed as compound remaining at 1 uM measured up to 1 hr in presence of NADPH by LC-MS/MS analysis; assay type: ADME, Microsome; settings: read-out: Stability
# [18] = Metabolic stability in rat liver microsomes assessed as compound remaining at 1 uM measured up to 1 hr in presence of NADPH by LC-MS/MS analysis; assay type: ADME, Microsome; settings: read-out: Stability
# [19] = Half life in mouse liver microsomes at 1 uM measured up to 1 hr by LC-MS/MS analysis; assay type: ADME, Microsome
# [20] = tested on: A549; experiment: Induction of apoptosis in human A549 cells assessed as necrotic cells at 9 uM after 72 hrs by Annexin V-FITC/propidium iodide staining-based flow cytometric analysis (reference value: 1.70%); assay type: functional
# [21] = tested on: A549; experiment: Induction of apoptosis in human A549 cells assessed as early apoptotic cells at 9 uM after 72 hrs by Annexin V-FITC/propidium iodide staining-based flow cytometric analysis (reference value: 2.40%); assay type: functional
# [22] = tested on: A549; experiment: Induction of apoptosis in human A549 cells assessed as viable cells at 9 uM after 72 hrs by Annexin V-FITC/propidium iodide staining-based flow cytometric analysis (reference value: 94.66%); assay type: functional; settings: A549, 72 h, read-out: Activity
# [23] = tested on: A549; experiment: Induction of apoptosis in human A549 cells assessed as late apoptotic cells at 3 uM after 72 hrs by Annexin V-FITC/propidium iodide staining-based flow cytometric analysis (reference value: 1.24%); assay type: functional
# [24] = tested on: A549; experiment: Induction of apoptosis in human A549 cells assessed as viable cells at 3 uM after 72 hrs by Annexin V-FITC/propidium iodide staining-based flow cytometric analysis (reference value: 94.66%); assay type: functional; settings: A549, 72 h, read-out: Activity
# [25] = tested on: A549; experiment: Induction of apoptosis in human A549 cells assessed as necrotic cells at 1 uM after 72 hrs by Annexin V-FITC/propidium iodide staining-based flow cytometric analysis (reference value: 1.70%); assay type: functional
# [26] = tested on: A549; experiment: Induction of apoptosis in human A549 cells assessed as viable cells at 1 uM after 72 hrs by Annexin V-FITC/propidium iodide staining-based flow cytometric analysis (reference value: 94.66%); assay type: functional; settings: A549, 72 h, read-out: Activity
# [27] = tested on: HK-2; experiment: cells; settings: Homo sapiens, HK-2, 72 h
# Description: Cytotoxicity against human HK2 cells assessed as reduction in cell viability after 72 hrs by MTT assay
smiles,measurement,setting,value
COc1cc(C(=O)NC2CCNCC2)ccc1Nc1nc(Nc2ccccc2P(C)(C)=O)c2cc[nH]c2n1,inhibition,[1],10%
same,inhibition,[2],2%
same,inhibition,[3],43%
same,inhibition,[4],-3%
same,inhibition,[5],14%
same,inhibition,[6],2%
same,inhibition,[7],0%
same,inhibition,[8],13%
same,inhibition,[9],98%
same,inhibition,[10],5%
same,"inhibition at 0.25 h, 10 µM",[11],4.9%
same,"inhibition at 0.25 h, 10 µM",[12],11.5%
same,CLH,[13],0.696 L/h/kg
same,microsomal CLint at 1 µM,[14],< 9.6 µL/min/mg
same,microsomal CLint at 1 µM,[15],12.9 µL/min/mg
same,"remaining at 1 h, 1 µM",[16],76.3%
same,"remaining at 1 h, 1 µM",[17],67.9%
same,"remaining at 1 h, 1 µM",[18],80.7%
same,half-life at 1 µM,[19],2.29 h
same,Activity,[20],4.15%
same,Activity,[21],30.12%
same,viability at 9 µM,[22],29.1%
same,Activity,[23],25.09%
same,viability at 3 µM,[24],52.9%
same,Activity,[25],6.37%
same,viability at 1 µM,[26],70.7%
same,IC50,[27],> 25 µM
